# According to patent US20250281460A1, “PEGYLATED BILIRUBIN FOR THE TREATMENT OF […], OBESITY, FATTY LIVER DISEASE, CARDIOVASCULAR DISEASES AND TYPE II DIABETES” (The University of Toledo, priority 2019, published 2025):
# “Also recorded” adds a separate entry of the source.
# Key:
# 3T3-L1-WAT adipocytes = test: SeaHorse oxygen consumption rate in fully differentiated 3T3-L1-WAT adipocytes; format: cell-based, mouse; settings: 50 μM biliverdin, 50 μM WY 14,463, 10 μM rosiglitazone
# Protocol: To compare the effects of bilirubin on the activation of PPARα or PPARγ on mitochondrial function, a SeaHorse XFe96 Analyzer was used to measure oxygen consumption rate (OCR) in fully differentiated 3T3-L1-WAT adipocytes treated with 50 μM biliverdin, 50 μM WY 14,463 (PPARα agonist), or 10 μM rosiglitazone (PPARγ-agonist). […]. Rosiglitazone, but not biliverdin or WY 14,643, enhanced the coupling efficiency. None of the ligands affected non-mitochondrial respiration, basal respiration, or proton leak.
# Cellular respiration was quantified using the Seahorse Extracellular Flux Analyzer XF-96 (Agilent Technologies, Cedar Creek, TX). The Seahorse XF Cell Mito Stress Test Kit (Agilent Technologies, Cat #103015-100) was used for analysis of cellular respiration. BAT or 3T3-L1 cells were seeded on a XF96 cell culture microplate (Agilent 101085-004) at 20,000 cells per well. Cells were then differentiated as previously described for 9 days. […] The oxygen consumption rate (OCR) and extracellular acidification rate (ECAR) were used to quantify the cellular energy phenotype of the cells. After treatment, cells were washed twice with Seahorse Bioscience Assay Media (XF Base media with 25 mM Glucose, 2 mM […], and 1 mM Sodium Pyruvate) then incubated with the buffer for 1 hour in a non-CO2 incubator. The Seahorse Cartridge ports were loaded with […] of assay media with […] FCCP, 10 μM Oligomycin, 5 μM Rotenone/Antimycin A in different ports an hour before assay. […] The raw data and graphs were supplied as an Excel File or Graphpad Prizm file.
# BAT cells [1] = test: SeaHorse analysis in murine BAT cell line (wild-type); format: cell-based
# BAT cells [2] = test: Real-time PCR in differentiated BAT cells; format: cell-based, murine; settings: 50 μM biliverdin, 50 μM WY14,463, 10 μM rosiglitazone, 24 hrs
# Protocol: Total RNA was extracted from mouse tissues using the miRNeasy Mini Kit (Qiagen). Total RNA was read on a NanoDrop 2000 spectrophotometer (Thermo Fisher Scientific, Wilmington, DE) and cDNA was synthesized using High Capacity cDNA Reverse Transcription Kit (Applied Biosystems). PCR amplification of the cDNA was performed by quantitative real-time PCR using TrueAmp SYBR Green qPCR SuperMix (Advance Bioscience). The thermocycling protocol consisted of 3 min at 95° C., 48 cycles of 15 sec at 95° C., 30 sec at 60° C., and based on primer size 0 to 30 sec at 72° C. and finished with a melting curve ranging from 60-95° C. to allow distinction of specific products. Normalization was performed in separate reactions with primers to 36B4.
# [3] = tested on: BAT PPARα CRISPR KO cells; test: Seahorse analysis in BAT PPARα CRISPR KO cells; format: cell-based, mouse; settings: both KO clones, 24 hours
# From the text: To further delineate the actions of bilirubin on BAT, CRISPR technology was developed to knockout (KO) PPARα and establish two null clone lines. […]. The function of the ligands was lost in both clones for the BAT PPARα CRISPR KO cells.
# CRISPR-Technology was employed in BAT as previously described to excise part of Exon 3 and Exon 4 of the PPARα gene to create a PPARα Knockout BAT cell line. Two sgRNAs with high efficacy and low off-target scores were identified on Exon 3 and 4 of the mouse PPARα gene using Benchling online software. The two Cas9 targets were separated by 9,465 bases. All of the off-targets to our PPARα sgRNA had 4 mismatches, of which at least 1-2 were within the seed region (up to 12 bases proximal to the protospacer adjacent motif (PAM) site) which reduces the likelihood of Cas9 off-target effects. The multiplex sgRNAs were generated using the PrecisionX Multiplex gRNA Cloning Kit according to manufacturer instructions. […] After 36 h of transfection, cells with the top 10% level of fluorescence were single-sorted into 96-well plates by fluorescent activated cell sorting. […]
# Cellular respiration was quantified using the Seahorse Extracellular Flux Analyzer XF-96 (Agilent Technologies, Cedar Creek, TX). […] The oxygen consumption rate (OCR) and extracellular acidification rate (ECAR) were used to quantify the cellular energy phenotype of the cells. […]
# human PPARα-LBD = target: T1, human PPARα-LBD (Homo sapiens, UniProt Q07869); test: MARCONI / PamStation nuclear hormone receptor coregulator assay; format: binding; settings: 50 μM
# T1 construct: purchased Invitrogen PV4692
# T1 sequence (Q07869 239-466 limits assumed): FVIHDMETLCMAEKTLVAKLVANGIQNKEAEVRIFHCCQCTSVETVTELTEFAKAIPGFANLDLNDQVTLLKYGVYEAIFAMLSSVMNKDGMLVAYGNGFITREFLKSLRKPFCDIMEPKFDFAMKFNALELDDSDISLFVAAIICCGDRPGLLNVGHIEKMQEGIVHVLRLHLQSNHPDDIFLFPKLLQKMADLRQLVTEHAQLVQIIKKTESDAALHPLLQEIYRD
# Protocol: The molecular determinants that dictate specificity and selectivity in PPARα-coregulator interactions are largely unknown. […] To determine if bilirubin binds to the ligand binding domain (LBD) of PPARα to cause recruitment of a specific set of co-regulator proteins, the Microarray Assay for Realtime Coregulator-Nuclear Receptor Interaction (MARCONI) technology was used.
# Incubation was performed at 37° C. for 5 minutes in 1.5 ml microtubes prior to placement on respective array for analysis in a PamStation96 (Pamgene International). PPARα binding was reflected via fluorescent signals recorded through the Pamstation96. The signals were transformed into tiff images and binding capacity was quantified using BioNavigator software (Pamgene International).
Compound,ATP production (3T3-L1-WAT adipocytes),mitochondrial OCR for maximum respiration (3T3-L1-WAT adipocytes),proton leak (BAT cells [1]; BAT cells),"ATP production (BAT cells [1]; WT BAT cells, 24 hours)","basal respiration (OCR) (BAT cells [1]; WT BAT cells, 24 hours)","maximum respiration (OCR) (BAT cells [1]; WT BAT cells, 24 hours)",Adrb3 mRNA (BAT cells [2]),Ucp1 mRNA (BAT cells [2]),function of the ligands on mitochondrial function (OCR) [3],binding to the human PPARα-LBD (human PPARα-LBD),binding of the human PPARα LBD to coregulator motifs (human PPARα-LBD; 154 coregulator motifs),coregulators with reduced interactions with the human PPARα LBD (human PPARα-LBD; subtracted from the vehicle),highest interacting coregulators recruited to PPARα-LBD (human PPARα-LBD; subtracted from the vehicle)
"Cc1cccc(Nc2cc(Cl)nc(SCC(=O)O)n2)c1C [WY 14,643, WY-14,643]",not observed,significantly increased,stimulated,increased; also recorded: stimulated,increased,increased; also recorded: significantly higher,significant increase,significant increase,lost,,,,
"C=CC1=C(C)/C(=C/c2[nH]c(Cc3[nH]c(/C=C4\NC(=O)C(C)=C4C=C)c(C)c3CCC(=O)O)c(CCC(=O)O)c2C)NC1=O [bilirubin, Bilirubin]",,,,,,,,,,direct binding,mitigate binding,"PRGR (LXXL 102-124), PRGC1 (LXXL 134-154), and PELP1 (LXXL 446-468)","MAPE (LXXL 249-271), WIPII (LXXL 313-335), CNOT1 (LXXL 2083-2105), PELP1 (LXXL 571-593), and others"
